Assay results as given in US10238657B2, “Heterocyclic compounds for treating psoriasis” (JS INNOPHARM (SHANGHAI LTD.), priority 2015, dated 2019).

Assays:
HaCaT cells [1] = experiment: Morphological examination of the effect on HaCaT cell differentiation; format: cell-based, human; details: 48 h incubation, immunohistochemical staining
Procedure: HaCaT cells were cultured in DMEM culture medium containing 10% FBS under 37° C. and 5% CO2 concentration. When reaching 80% of the culture bottle area and after digestion by 0.25% trypsin, the cells were adjusted to a concentration of 4×10^4/ml and moved to a 6-well plate respectively (containing sterilized slide). Compound solutions were added. The cells were applied to the corresponding wells, and a blank control group (saline) was set. Both the sample groups and the control group were placed in a cell incubator at 37° C. Immumohistochemical staining was conducted after incubation at 48 h.
The imagine in FIG. 1A is dark brown, indicating large amount of keratin is present. […] Compound No. 5 underwent cornification (positive result).

HaCaT cells [2] = experiment: In-vitro screening with MTT method, inhibition of proliferation of HaCaT cells; format: cell-based, human; details: about 48 hours incubation
Procedure: Compound No. 5 was dissolved in DMSO, and gradiently diluted with PBS to prepare solutions at concentration of 1000 μg/ml, 100 μg/ml, 10 μg/ml, 1 μg/ml, 0.1 μg/ml, and 0.01 μg/ml, respectively. Cis-platinum (CDDP) was used as positive control, and sample solutions were prepared with the same method. The sample solutions were added into a 96-well plate placed with the growth phase human immortalized keratinocyte (HaCaT) cells (Pharmacology Laboratory of Shanghai Institute of Pharmaceutical Industry), and were incubated for about 48 hours. The cell relative survival rate was determined by the MTT method, and calculated according to the following formula based on the light absorption value at […]. Cell relative survival rate=(Light absorption value of sample treatment group—background light absorption value)/(Light absorption value of DMSO treatment group—background light absorption value).

[3] = system: chick chorioallantoic membrane; experiment: Chick chorioallantoic membrane (CAM) angiogenesis model; format: in vivo, chicken; details: 4.0 μg/egg, 48 h
Procedure: Fresh eggs were incubated for 6 successive days under 37° C. and 50% humidity. On the 6th day, live eggs were identified and taken out for window-opening. First, the chorioallantoic membrane was located with illumination. Droplets of Compound No. […] After air dry, the filter paper was placed on the chorioallantoic membrane gently without contacting big vessels. The window was sealed with a transparent adhesive tape. The eggs were incubated for 48 hours continuously. The transparent adhesive tape was then uncovered. The window was enlarged and photos were taken under a dissecting microscope (FIGS. 2 A-B). New vessels were counted based on the number of blood vessel branch points in each photo. Inhibitory rate=100−[(number of new blood vessels in treatment group at 24 h)/(number of new blood vessels in treatment group at 0 h)]/[(number of blood vessels in negative control group at 24 h)/(number of blood vessels in negative control group at 0 h)]×100%.

mouse tail epidermis = experiment: Effect on mouse tail epidermis (granular layer of tail scales); format: in vivo; details: cream 5% (w/w), 100 μl once daily, 7 days, female mice, n = 10
Procedure: 70 female mice were randomly divided into several groups: (a) saline control group, saline was used in each administration; (b) blank cream group, blank cream was used in each administration; (c) calcipotriol control group, calcipotriol in cream (5% w/w) was used in each administration; (d) four testing groups, Compound No 5 in cream at 0.5%, 1%, 2%, and 4% (w/w), respectively, was used in each administration. 100 μl of corresponding treatment was applied to the same position on the tail of the mice once daily for seven successive days. The mice were sacrificed 1 hour after the last application. The treated skin parts were taken for pathological examination, and the tail scales of each mouse was assessed under a microscope. The number of scales having a granular layer in every 100 scales was counted, and the result was expressed as percentage.

[4] = system: mouse vaginal epidermal cells; experiment: Effect on mitosis of mouse vaginal epidermal cells; format: in vivo; details: cream 5% w/w, 25 μl intravaginal once daily, 3 days, estradiol-treated mice, n = 6
Procedure: Except for the saline control group, sexually mature female mice were injected with estradiol subcutaneously at a dosage of 35 mg/kg for 3 successive days. On the fourth day, in-estrus mice were selected with vaginal smear. The mice were randomly divided into several groups: (a) saline control group, saline was used in each administration; (b) blank cream group, blank cream was used in each administration; (c) calcipotriol control group, calcipotriol in cream (5% w/w) was used in each administration; (d) four testing groups, Compound No 5 in cream at concentration of 0.5%, 1%, 2%, and 4% (w/w), respectively, was used in each application. 25 μl corresponding treatment was injected into the vagina of the mice once daily for 3 successive days. Colchicine (15 mg/Kg) was intraperitoneally injected 2 hours after the last dosing. The mice were sacrificed 6 hours after the injection of colchicine. The vaginal tissue was taken out for pathological examination. The number of mitosis in one hundred basal cells was counted, which was named as the mitotic index.

guinea pig ear epidermis = experiment: Propranolole hydrochloride-induced psoriasis in guinea pig model; format: in vivo; details: cream 5% w/w, 200 μl on both ears twice daily, 7 days
Procedure: Except for those in Saline control group, guinea pigs were treated with propranolole hydrochloride cream (5% w/w, 200 μl) uniformly applied on the back of both ears twice daily for four successive weeks. After four weeks, the […] were divided into several groups, namely, blank cream group, calcipotriol group, and four testing cream groups with Compound 5 at concentration of 0.5%, 1%, 2%, and 4% (w/w)), respectively. The guinea pigs in Saline control group were treated with saline on the back of both ears; the guinea pigs in other groups were treated with corresponding cream on the back of both ears (200 μl) twice daily for 7 successive days. The guinea pigs were examined during the experiment period and sacrificed 1 hour after the last dosing.

Cc1cnc(Nc2ccc(F)cc2Cl)nc1-c1cc2n(c1)CCN([C@H](CO)c1ccc(F)cc1)C2=O [Compound 10, (S)-7-(2-((2-chloro-4-fluorophenyl)amino)-5-methylpyrimidin-4-yl)-2-(1-(4-fluorophenyl)-2-hydroxyethyl)-3,4-dihydropyrrolo[1,2-a]pyrazin-1(2H)-one]
Test Results, effect on HaCat cell differentiation (HaCaT cells [1]): Positive

Cc1cnc(NC2CCOCC2)nc1-c1cc2n(c1)CCN(C(c1ccc(Cl)c(F)c1)c1cnn(C)c1)C2=O (centres unmarked) [Compound 19, 2-((4-chloro-3-fluorophenyl)(1-methyl-1H-pyrazol-4-yl)methyl)-7-(5-methyl-2-((tetrahydro-2H-pyran-4-yl)amino)pyrimidin-4-yl)-3,4-dihydropyrrolo[1,2-a]pyrazin-1(2H)-one]
Test Results, effect on HaCat cell differentiation (HaCaT cells [1]): Positive

N.N.[Cl][Pt][Cl] [CDDP, Cis-platinum, reference compound]
HaCaT Cells IC50 (HaCaT cells [2]): 1.41 µg/mL

C[C@H](c1cccc(Cl)c1)N1CCn2cc(-c3c[nH]c4ncc(-c5ccccc5)cc34)cc2C1=O [Compound 2, (R)-2-(1-(3-chlorophenyl)ethyl)-7-(5-phenyl-1H-pyrrolo[2,3-b]pyridin-3-yl)-3,4-dihydropyrrolo[1,2-a]pyrazin-1(2H)-one]
Test Results, effect on HaCat cell differentiation (HaCaT cells [1]): Positive

CNC(=O)c1cc(Oc2ccc(NC(=O)Nc3ccc(Cl)c(C(F)(F)F)c3)cc2)ccn1 [Sorafeni, Sorafenib, reference compound]
Number of new blood vessels 48 h ([3]; n = 3): 18.17 ± 7.60
Inhibitory rate (%) ([3]; versus PBS group): 77.27%

Cc1cnc(Nc2ccc(F)cc2Cl)nc1-c1cc2n(c1)CCN([C@H](CO)c1cccc(F)c1)C2=O [Compound 9, (S)-7-(2-((2-chloro-4-fluorophenyl)amino)-5-methylpyrimidin-4-yl)-2-(1-(3-fluorophenyl)-2-hydroxyethyl)-3,4-dihydropyrrolo[1,2-a]pyrazin-1(2H)-one]
Test Results, effect on HaCat cell differentiation (HaCaT cells [1]): Positive

Cc1cnc(Nc2ccc(F)cc2Cl)nc1-c1cc2n(c1)CCN([C@H](C)c1cccc(Cl)c1)C2=O [Compound 6, (R)-7-(2-((2-chloro-4-fluorophenyl)amino)-5-methylpyrimidin-4-yl)-2-(1-(3-chlorophenyl)ethyl)-3,4-dihydropyrrolo[1,2-a]pyrazin-1(2H)-one]
Test Results, effect on HaCat cell differentiation (HaCaT cells [1]): Positive

C=C1/C(=C\C=C2/CCC[C@]3(C)[C@@H]([C@H](C)/C=C/[C@@H](O)C4CC4)CC[C@@H]23)C[C@@H](O)C[C@@H]1O [Calcipotriol, calcipotriol, reference compound]
Scales quantity in granular layer * 100% (mouse tail epidermis): 50.50 ± 4.95 %
Mitotic cell number/total cell number (%) [4]: 15.33 ± 1.21 %
Epidermal thickness (μm) (guinea pig ear epidermis): 158.72 ± 2.93 μm

Cc1cnc(Nc2ccc(F)cc2)nc1-c1cc2n(c1)CCN([C@H](CO)c1cccc(Cl)c1)C2=O [Compound 17, (S)-2-(1-(3-chlorophenyl)-2-hydroxyethyl)-7-(2-((4-fluorophenyl)amino)-5-methylpyrimidin-4-yl)-3,4-dihydropyrrolo[1,2-a]pyrazin-1(2H)-one]
Test Results, effect on HaCat cell differentiation (HaCaT cells [1]): Positive

Cc1cnc(Nc2ccc(F)cc2Cl)nc1-c1cc2n(c1)CCN([C@H](CO)c1ccc(Cl)cc1)C2=O [Compound 8, (S)-7-(2-((2-chloro-4-fluorophenyl)amino)-5-methylpyrimidin-4-yl)-2-(1-(4-chlorophenyl)-2-hydroxyethyl)-3,4-dihydropyrrolo[1,2-a]pyrazin-1(2H)-one]
Test Results, effect on HaCat cell differentiation (HaCaT cells [1]): Positive

Cc1cnc(NC2CCCCC2)nc1-c1cc2n(c1)CCN([C@H](CO)c1cccc(Cl)c1)C2=O [Compound 20, (S)-2-(1-(3-chlorophenyl)-2-hydroxyethyl)-7-(2-(cyclohexylamino)-5-methylpyrimidin-4-yl)-3,4-dihydropyrrolo[1,2-a]pyrazin-1(2H)-one]
Test Results, effect on HaCat cell differentiation (HaCaT cells [1]): Positive

C[C@H](c1cccc(Cl)c1)N1CCn2cc(-c3n[nH]c4ncc(-c5ccccc5)cc34)cc2C1=O [Compound 3, (R)-2-(1-(3-chlorophenyl)ethyl)-7-(5-phenyl-1H-pyrazolo[3,4-b]pyridin-3-yl)-3,4-dihydropyrrolo[1,2-a]pyrazin-1(2H)-one]
Test Results, effect on HaCat cell differentiation (HaCaT cells [1]): Positive

Cc1cnc(Nc2ccc(N3CCNCC3)cc2Cl)nc1-c1cc2n(c1)CCN([C@H](CO)c1cccc(Cl)c1)C2=O [Compound 11, (S)-7-(2-((2-chloro-4-(piperazin-1-yl)phenyl)amino)-5-methylpyrimidin-4-yl)-2-(1-(3-chlorophenyl)-2-hydroxyethyl)-3,4-dihydropyrrolo[1,2-a]pyrazin-1(2H)-one]
Test Results, effect on HaCat cell differentiation (HaCaT cells [1]): Positive

Cc1cnc(Nc2ccc(C3CCNCC3)cc2Cl)nc1-c1cc2n(c1)CCN([C@H](CO)c1cccc(Cl)c1)C2=O [Compound 12, (S)-7-(2-((2-chloro-4-(piperidin-4-yl)phenyl)amino)-5-methylpyrimidin-4-yl)-2-(1-(3-chlorophenyl)-2-hydroxyethyl)-3,4-dihydropyrrolo[1,2-a]pyrazin-1(2H)-one]
Test Results, effect on HaCat cell differentiation (HaCaT cells [1]): Positive

Cc1cnc(Nc2ccc(N3CCN(S(C)(=O)=O)CC3)cc2Cl)nc1-c1cc2n(c1)CCN([C@H](CO)c1cccc(Cl)c1)C2=O [Compound 16, (S)-7-(2-((2-chloro-4-(4-(methylsulfonyl)piperazin-1-yl)phenyl)amino)-5-methylpyrimidin-4-yl)-2-(1-(3-chlorophenyl)-2-hydroxyethyl)-3,4-dihydropyrrolo[1,2-a]pyrazin-1(2H)-one]
Test Results, effect on HaCat cell differentiation (HaCaT cells [1]): Positive

Cc1cnc(Nc2ccc(F)cc2Cl)nc1-c1cc2n(c1)CCCN([C@H](CO)c1cccc(Cl)c1)C2=O [Compound 7, (S)-8-(2-((2-chloro-4-fluorophenyl)amino)-5-methylpyrimidin-4-yl)-2-(1-(3-chlorophenyl)-2-hydroxyethyl)-2,3,4,5-tetrahydro-1H-pyrrolo[1,2-a][1,4]diazepin-1-one]
Test Results, effect on HaCat cell differentiation (HaCaT cells [1]): Positive

Cc1cnc(Nc2ccc(C3CCN(C(C)C)CC3)cc2Cl)nc1-c1cc2n(c1)CCN([C@H](CO)c1cccc(Cl)c1)C2=O [Compound 13, (S)-7-(2-((2-chloro-4-(1-isopropylpiperidin-4-yl)phenyl)amino)-5-methylpyrimidin-4-yl)-2-(1-(3-chlorophenyl)-2-hydroxyethyl)-3,4-dihydropyrrolo[1,2-a]pyrazin-1(2H)-one]
Test Results, effect on HaCat cell differentiation (HaCaT cells [1]): Positive
